# In patent publication US10894807B2 (Siemens Medical Solutions USA, Inc., priority 2011, dated 2021):
# pKi: −log10 of the molar value.
# Molecular target: human PSMA (Homo sapiens (Human), UniProt Q04609)
# Experiment: Enzymatic assay for in vitro evaluation of PSMA inhibitors (fluorescent assay of PSMA activity, NAAG substrate, OPA detection of glutamate)
# Assay type: biochemical
# Conditions: for PSMA Blkg % (10 μM): compound at 10 μM
# human PSMA, sequence (Q04609 whole entry): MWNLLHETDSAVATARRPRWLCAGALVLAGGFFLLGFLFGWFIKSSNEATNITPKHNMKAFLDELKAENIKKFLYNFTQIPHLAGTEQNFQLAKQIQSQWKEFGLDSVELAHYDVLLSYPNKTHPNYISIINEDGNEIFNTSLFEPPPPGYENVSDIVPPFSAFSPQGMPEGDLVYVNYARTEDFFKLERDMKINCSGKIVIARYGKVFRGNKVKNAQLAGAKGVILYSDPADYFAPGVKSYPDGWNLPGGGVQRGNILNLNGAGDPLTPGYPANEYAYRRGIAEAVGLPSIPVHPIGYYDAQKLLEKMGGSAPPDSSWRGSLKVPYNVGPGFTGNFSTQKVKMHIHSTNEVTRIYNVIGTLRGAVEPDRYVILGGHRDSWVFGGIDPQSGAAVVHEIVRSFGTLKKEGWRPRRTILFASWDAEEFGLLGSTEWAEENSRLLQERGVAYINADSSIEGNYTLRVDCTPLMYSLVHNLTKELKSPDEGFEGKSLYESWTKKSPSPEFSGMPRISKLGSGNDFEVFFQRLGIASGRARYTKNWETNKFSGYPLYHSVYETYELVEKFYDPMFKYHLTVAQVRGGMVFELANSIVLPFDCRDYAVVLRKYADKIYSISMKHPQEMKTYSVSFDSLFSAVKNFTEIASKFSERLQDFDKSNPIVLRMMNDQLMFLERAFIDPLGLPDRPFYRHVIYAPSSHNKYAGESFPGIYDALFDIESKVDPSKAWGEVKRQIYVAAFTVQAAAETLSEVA
Structure (SMILES),PSMA Blkg % (10 μM),pKi
"CCC1(CC)C(=O)N([C@@H](CCCCNC(=O)OCc2ccc([N+](=O)[O-])cc2)C(=O)O)C(=O)N([C@@H](CCC(=O)O)C(=O)O)C1=O [P118, (S)-2-(3-((S)-1-Carboxy-5-((4-nitrobenzyloxy)carbonylamino)pentyl)-5,5-diethyl-2,4,6-trioxotetrahydropyrimidin-1(2H)-yl)pentanedioic Acid]",13%,
"O=C(O)CC[C@H](NC(=O)C[C@H](NC(=O)CCCCNC(=O)c1ccccc1)C(=O)O)C(=O)O [P119, (S)-2-((S)-3-(5-Benzamidopentanamido)-3-carboxypropanamido)pentanedioic Acid]",26%,
"O=C(O)CC[C@@H](C(=O)O)N1C(=O)CC(=O)N([C@@H](CCCCNC(=O)OCc2ccc([N+](=O)[O-])cc2)C(=O)O)C1=O [P120, (S)-2-(3-((S)-1-Carboxy-5-((4-nitrobenzyloxy)carbonylamino)pentyl)-2,4,6-trioxotetrahydropyrimidin-1(2H)-yl)pentanedioic Acid]",15%,
"NC(=O)CCC(C(=O)O)n1cc(COc2ccc3ccc(=O)oc3c2)nn1 (centres unmarked) [P121, 5-Amino-5-oxo-2-(4-(((2-oxo-2H-chromen-7-yl)oxy)methyl)-1H-1,2,3-triazol-1-yl)pentanoic Acid]",7%,
"COc1ccc(CCCC(=O)N[C@@H](CC(=O)N[C@@H](CCC(=O)O)C(=O)O)C(=O)O)cc1 [P122, (S)-2-((S)-3-Carboxy-3-(4-(4-methoxyphenyl)butanamido)propanamido)-pentanedioic Acid]",18%,
"O=C(O)CC[C@H](NC(=O)C[C@H](NC(=O)CCCc1ccc([N+](=O)[O-])cc1)C(=O)O)C(=O)O [P123, (S)-2-((S)-3-Carboxy-3-(4-(4-nitrophenyl)butanamido)propanamido)pentanedioic Acid]",17%,
O=C(O)CC[C@@H](C(=O)O)N1C(=O)CC(=O)NC1=O [P126],12%,
"Nc1ccc(/C(O)=C2\C(=O)NC(=O)N([C@@H](CCC(=O)O)C(=O)O)C2=O)cc1 [P127, (S,Z)-2-(5-((4-Aminophenyl)(hydroxy)methylene)-2,4,6-trioxotetrahydropyrimidin-1(2H)-yl)pentanedioic Acid]",10%,
"O=C(O)CC[C@@H](C(=O)O)N1C(=O)CC(=O)N([C@@H](CCCCNS(=O)(=O)c2ccc([N+](=O)[O-])cc2)C(=O)O)C1=O [P128, (S)-2-(3-((S)-1-Carboxy-5-(4-nitrophenylsulfonamido)pentyl)-2,4,6-trioxotetrahydropyrimidin-1(2H)-yl)pentanedioic Acid]",12%,
"O=C(O)CC[C@@H](C(=O)O)N1C(=O)CC(=O)N([C@@H](CCCCNC(=O)NCc2ccccc2)C(=O)O)C1=O [P129, (S)-2-(3-((S)-5-(3-Benzylureido)-1-carboxypentyl)-2,4,6-trioxotetrahydropyrimidin-1(2H)-yl)pentanedioic Acid]",10%,
"CCC1(CC)C(=O)N([C@@H](CCCCNC(=S)Nc2ccc(-n3cc(CCCF)nn3)cc2)C(=O)O)C(=O)N([C@@H](CCC(=O)O)C(=O)O)C1=O [P130, (S)-2-(3-((S)-1-Carboxy-5-(3-(4-(4-(3-fluoropropyl)-1H-1,2,3-triazol-1-yl)phenyl)thioureido)pentyl)-5,5-diethyl-2,4,6-trioxotetrahydropyrimidin-1 (2H)-yl)pentanedioic Acid]",10%,
"O=C(O)CC[C@H](NC(=O)CN(O)C(=O)CCCCNC(=O)c1ccccc1)C(=O)O [P131, (S)-2-(2-(5-Benzamido-N-hydroxypentanamido)acetamido)pentanedioic Acid]",6%,
"COc1ccc(CCCC(=O)N(O)CC(=O)N[C@@H](CCC(=O)O)C(=O)O)cc1 [P132, (S)-2-(2-(N-Hydroxy-4-(4-methoxyphenyl)butanamido)acetamido)pentanedioic Acid]",17%,
"CN(C(=O)N[C@@H](CCC(=O)O)C(=O)O)[C@@H](CCCCNC(=O)c1ccc(F)nc1)C(=O)O [P133, (S)-2-(3-((S)-1-Carboxy-5-(6-fluoronicotinamide)pentyl)-3-methylureido)-pentanedioic Acid]",95%,6.90
"Nc1ccc(CCCC(=O)N(O)CC(=O)N[C@@H](CCC(=O)O)C(=O)O)cc1 [P134, (S)-2-(2-(4-(4-Aminophenyl)-N-hydroxybutanamido)acetamido)pentanedioic Acid]",37%,
"O=C(O)CC[C@@H](NC(=O)N(O)[C@@H](CC(=O)NCc1ccccc1)C(=O)O)C(=O)O [P135, (R)-2-(3-((S)-3-(Benzylamino)-1-carboxy-3-oxopropyl)-3-hydroxyureido)pentanedioic Acid]",42%,

Structure (SMILES),PSMA Blkg % (10 μM),pKi
[N-]=[N+]=Nc1ccc(CCCC(=O)NC(Cc2cn(C(CCC(=O)O)C(=O)O)nn2)C(=O)O)cc1 (centres unmarked) [P137],3%,
"CCC1(CC)C(=O)N([C@@H](CCCCNC(=O)OCc2ccccc2)C(=O)O)C(=S)N([C@@H](CCC(=O)O)C(=O)O)C1=O [P138, (S)-2-(3-((S)-5-(Benzyloxycarbonylamino)-1-carboxypentyl)-5,5-diethyl-4,6-dioxo-2-thioxotetrahydropyrimidin-1(2H)-yl)pentanedioic Acid]",6%,
"O=C(O)CC[C@H](NC(=O)N(O)[C@@H](CCCNC(=O)OCc1ccccc1)C(=O)O)C(=O)O [P139, (8S,12S)-9-Hydroxy-3,10-dioxo-1-phenyl-2-oxa-4,9,11-triazatetradecane-8,12,14-tricarboxylic Acid]",16%,
"O=C(O)CC[C@@H](C(=O)O)N(O)C(=O)N[C@@H](CCCCNC(=O)OCc1ccccc1)C(=O)O [P140, (9S,13S)-12-Hydroxy-3,11-dioxo-1-phenyl-2-oxa-4,10,12-triazapentadecane-9,13,15-tricarboxylic Acid]",64%,
"O=C(O)CC[C@H](NC(=O)CN(O)C(=O)CCCNC(=O)c1ccc(-n2cc(CCCF)nn2)cc1)C(=O)O [P141, (S)-2-(2-(4-(4-(4-(3-Fluoropropyl)-1H-1,2,3-triazol-1-yl)benzamido)-N-hydroxybutanamido)acetamido)pentanedioic Acid]",1%,
"O=C(O)CC[C@H](NC(=O)CN(O)C(=O)CCCNC(=O)Cn1cc(CCCF)nn1)C(=O)O [P142, (S)-2-(2-(4-(2-(4-(3-Fluoropropyl)-1H-1,2,3-triazol-1-yl)acetamido)-N-hydroxybutanamido)acetamido)pentanedioic Acid]",5%,
"CN(C(=S)N[C@@H](CCC(=O)O)C(=O)O)[C@@H](CCCCNC(=O)OCc1ccccc1)C(=O)O [P143, (9S,13S)-10-Methyl-3-oxo-1-phenyl-1-thioxo-2-oxa-4,10,12-triazapentadecane-9,13,15-tricarboxylic Acid]",15%,
"O=C(O)CC[C@H](NC(=O)CN(O)C(=O)CCc1ccc(-n2cc(CCCF)nn2)cc1)C(=O)O [P144, (S)-2-(2-(3-(4-(4-(3-Fluoropropyl)-1H-1,2,3-triazol-1-yl)phenyl)-N-hydroxypropanamido)acetamido)pentanedioic Acid]",7%,
"O=C(O)CC[C@H](NC(=S)CN(O)C(=O)CCCc1ccc(-n2cc(CCCF)nn2)cc1)C(=O)O [P145, (S)-2-(2-(4-(4-(4-(3-Fluoropropyl)-1H-1,2,3-triazol-1-yl)phenyl)-N-hydroxy-butanamido)ethanethioamido)pentanedioic Acid]",7%,
"O=C(O)CC[C@H](NC(=S)N(O)[C@@H](CCCCNC(=O)c1ccc(-n2cc(CCCF)nn2)cc1)C(=O)O)C(=O)O [P146, (S)-2-(3-((S)-1-Carboxy-5-(4-(4-(3-fluoropropyl)-1H-1,2,3-triazol-1-yl)benzamido)pentyl)-3-hydroxythioureido)pentanedioic Acid]",45%,
"O=C(O)CC[C@@H](C(=O)O)N(O)C(=O)N[C@@H](CCCCNC(=O)CCCc1ccc(-n2cc(CCCF)nn2)cc1)C(=O)O [P147, (S)-2-(3-((S)-1-Carboxy-5-(4-(4-(4-(3-fluoropropyl)-1H-1,2,3-triazol-1-yl)phenyl)butanamido)pentyl)-1-hydroxyureido)pentanedioic Acid]",69%,
"O=C(O)CC[C@@H](C(=O)O)N(O)C(=O)N[C@@H](CCCCNC(=O)Cn1cc(CCCF)nn1)C(=O)O [P148, (S)-2-(3-((S)-1-Carboxy-5-(2-(4-(3-fluoropropyl)-1H-1,2,3-triazol-1-yl)acetamido)pentyl)-1-hydroxyureido)pentanedioic Acid]",87%,6.60
"COc1ccc(CCNC(=O)N(O)CC(=O)N[C@@H](CCC(=O)O)C(=O)O)cc1OC [P149, (S)-2-(2-(3-(3,4-Dimethoxyphenethyl)-1-hydroxyureido)acetamido)pentanedioic Acid]",0%,
"CCC1(CC)C(=O)N([C@@H](CCCCn2cc(CCCF)nn2)C(=O)O)C(=O)N([C@@H](CCC(=O)O)C(=O)O)C1=O [P150, (S)-2-(3-((S)-1-Carboxy-5-(4-(3-fluoropropyl)-1H-1,2,3-triazol-1-yl)pentyl)-5,5-diethyl-2,4,6-trioxotetrahydropyrimidin-1(2H)-yl)pentanedioic Acid]",9%,
"CCC1(CC)C(=O)N([C@@H](CCCCn2cc(COCCOCCNc3ccc([N+](=O)[O-])cc3[N+](=O)[O-])nn2)C(=O)O)C(=O)N([C@@H](CCC(=O)O)C(=O)O)C1=O [P151, (S)-2-(3-((S)-1-Carboxy-5-(4-((2-(2-(2,4-dinitrophenylamino)ethoxy)ethoxy)methyl)-1H-1,2,3-triazol-1-yl)pentyl)-5,5-diethyl-2,4,6-trioxotetrahydropyrimidin-1(2H)-yl)pentanedioic Acid]",17%,
"O=C(O)CC[C@@H](C(=O)O)N(O)C(=O)N[C@@H](CCCCNC(=O)c1ccc(-n2cc(CCCF)nn2)cc1)C(=O)O [P152, (S)-2-(3-((S)-1-Carboxy-5-(4-(4-(3-fluoropropyl)-1H-1,2,3-triazol-1-yl)benzamido)pentyl)-1-hydroxyureido)pentanedioic Acid]",93%,6.89
